Data as given in article PMC7835950 (Frontiers in Chemistry, 2021).

Tested on: OGDH and OADH
Assay: Mechanism of inhibition of the OGDH and OADH reactions (effective Km and Amax vs inhibitor concentration)
Assay type: biochemical, rat
Details: vs 2-oxo substrate; cardiac or hepatic preparations; inhibitor up to 200 μM
Procedure: The enzyme activities were assayed in the medium (pH 7.0) containing 50 mM MOPS, 1 mM ThDP, 1 mM MgCl2, 1 mM CaCl2, 1 mM dithiothreitol 0.15 mM Coenzyme A, 0.25 mM NAD^+ and various concentrations of 2-oxo substrates (0–10 mM OG or OA) and their phosphonate analogs (0–5,000 μM SP, GP, or AP). Reactions were started by addition of the enzyme preparations to the assay media. The amount of enzyme preparations (0.074 mg protein for the preparation from liver and 0.023 mg protein for the preparation from heart) were chosen to induce the lowest reliably measured reaction rate (ΔA340 = 0.001/min) at 0.01 mM OA without the phosphonates.
To determine the inhibition constants (Ki), the effective values of Kmeff and Amaxeff , calculated from the hyperbolic or linear approximations as described above, were plotted against the concentration of the inhibitors ([I]). The linear regression of the equation Kmeff/Amaxeff=Km/Amax(1+[I]/Ki) , (Cornish-Bowden, [1979]) was applied to find the Intercept (Km/Amax) and Slope (Km/(Amax*Ki)) of a dependence. The values of Ki were determined as the ratio of the corresponding Intercepts to the Slopes. In the two-site model, the Ki(1) and Ki(2) were calculated separately from the linear approximations of Km,1eff/Amax,1eff vs. [I] and Km,2eff/Amax,2eff vs. [I] dependences, respectively. The standard errors of Ki were determined from means and standard errors of the Intercepts and the Slopes, using the previously described formula for standard deviation of a fraction (Bunik et al., [1999]). The Ki values obtained from the non-linear and linear regression analyses of the experimental data were averaged and presented as Mean ± Standard Error of Mean.

Compound | primary mechanism of inhibition
O=C(O)CCCCC(=O)P(=O)(O)O [AP, adipoyl phosphonate] | competitive inhibition
O=C(O)CCCC(=O)P(=O)(O)O [GP, glutaryl phosphonate] | competitive inhibition
O=C(O)CCC(=O)P(=O)(O)O [SP, succinyl phosphonate] | competitive inhibition
